Test results as given in PubChem BioAssay (NCI).
Where “and” joins values, the source holds several entries; their conditions need not be identical. Identical values can stand only once.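 Step 1: Grow cells in 96-well plates. Step 2: Expose to compound for 48 hours at 5 concentrations. Step 3: Interpolate endpoints linearly; if unreached, use highest concentration. GI50 = concentration required for 50% inhibition of growth. Definition used: TGI = concentration required for complete inhibition of growth.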 *1 amine or outer side, *2 acyl side, *3 side chain or, on linkers, in order; H or OH if unused. Where a SMILES comes first, the peptide text is derived from it. Bridges are numbered along the chain shown (N, C = ends). Roman numbers before positions name the chains, in order. [ ]: non-standard residue; d: D form. Actinocin(9to1) = Cc1c2oc3c(C)ccc(C(=O)[*:1])c3nc-2c(C(=O)[*:2])c(N)c1=O; NMeT = CN[CH](C(=O)O)[CH](C)O; Sar = CNCC(=O)O

Experiments:
Assay in all cases: DTP human tumour cell line panel, 48 h
[1] = test system: 786-0 renal
[2] = test system: A498 renal
[3] = test system: A549 NSCLC
[4] = test system: ACHN renal
[5] = test system: CAKI-1 renal
[6] = test system: CCRF-CEM leukemia
[7] = test system: COLO 205 colon
[8] = test system: DU-145 prostate
[9] = test system: EKVX NSCLC
[10] = test system: HCC-2998 colon
[11] = test system: HCT-116 colon
[12] = test system: HCT-15 colon
[13] = test system: HL-60(TB) leukemia
[14] = test system: HOP-62 NSCLC
[15] = test system: HOP-92 NSCLC
[16] = test system: HS 578T breast
[17] = test system: HT29 colon
[18] = test system: IGROV1 ovarian
[19] = test system: K-562 leukemia
[20] = test system: KM12 colon
[21] = test system: LOX IMVI melanoma
[22] = test system: M14 melanoma
[23] = test system: MALME-3M melanoma
[24] = test system: MCF7 breast
[25] = test system: MDA-MB-231 breast
[26] = test system: MDA-MB-435
[27] = test system: MDA-N
[28] = test system: MOLT-4 leukemia
[29] = test system: NCI-H226 lung
[30] = test system: NCI-H23 lung
[31] = test system: NCI-H460 lung
[32] = test system: NCI-H522 lung
[33] = test system: NCI/ADR-RES ovarian
[34] = test system: OVCAR-3 ovarian
[35] = test system: OVCAR-4 ovarian
[36] = test system: OVCAR-5 ovarian
[37] = test system: OVCAR-8 ovarian
[38] = test system: PC-3 prostate
[39] = test system: RPMI-8226 leukemia
[40] = test system: RXF 393 renal
[41] = test system: SF-268 CNS
[42] = test system: SF-295 CNS
[43] = test system: SF-539 CNS
[44] = test system: SK-MEL-2 melanoma
[45] = test system: SK-MEL-28 melanoma
[46] = test system: SK-MEL-5 melanoma
[47] = test system: SK-OV-3 ovarian
[48] = test system: SN12C renal
[49] = test system: SNB-19 CNS
[50] = test system: SNB-75 CNS
[51] = test system: SR leukemia
[52] = test system: SW-620 colon
[53] = test system: T-47D breast
[54] = test system: TK-10 renal
[55] = test system: U251 CNS
[56] = test system: UACC-257 melanoma
[57] = test system: UACC-62 melanoma
[58] = test system: UO-31 renal
[59] = test system: BT-549 breast

SMILES: Cc1c2oc3c(C)ccc(C(=O)NC4C(=O)NC(C(C)C)C(=O)N5CCCC5C(=O)N(C)CC(=O)N(C)C(C(C)O)C(=O)OC4C)c3nc-2c(C(=O)NC2C(=O)NC(C(C)C)C(=O)N3CCCC3C(=O)N(C)CC(=O)N(C)C(C(C)O)C(=O)OC2C)c(N)c1=O (configuration not stated) (I: TVP[Sar][NMeT] / II: TVP[Sar][NMeT]; ester I:1-I:C, II:1-II:C; linker I:N-II:N via Actinocin(9to1); configuration not given here)
- GI50 [1]: 1.25 µM and 0.61 µM
- TGI [1]: > 100 µM
- GI50 [2]: 0.327 µM and > 1 µM
- TGI [2]: 2.33 µM and > 1 µM
- GI50 [3]: 2.86 µM and > 1 µM
- TGI [3]: > 100 µM
- TGI [4]: > 26.6 µM
- GI50 [5]: 3.64 µM and > 1 µM
- TGI [5]: 13.1 µM and > 1 µM
- TGI [6]: 26.7 µM and > 1 µM
- GI50 [7]: 2.22 µM and 0.801 µM
- TGI [7]: > 36.8 µM
- GI50 [8]: 5.98 µM and > 1 µM
- TGI [8]: > 100 µM
- GI50 [9]: 2.56 µM and > 1 µM
- TGI [9]: 25 µM and > 1 µM
- GI50 [10]: 3.64 µM and > 1 µM
- TGI [10]: > 29.3 µM
- TGI [11]: > 100 µM
- GI50 [12]: 14.1 µM and > 1 µM
- TGI [12]: > 100 µM
- GI50 [13]: 3 µM and > 1 µM
- TGI [13]: 28.1 µM and > 1 µM
- TGI [14]: > 1 µM
- TGI [15]: > 71.4 µM
- TGI [16]: > 27.1 µM
- GI50 [17]: 3.17 µM and 0.724 µM
- TGI [17]: > 100 µM
- TGI [18]: > 41.7 µM
- TGI [19]: > 36.5 µM
- TGI [20]: > 100 µM
- TGI [21]: 7.84 µM and > 1 µM
- GI50 [22]: 7.14 µM and > 1 µM
- TGI [22]: > 56.9 µM
- GI50 [23]: 0.0949 µM and 0.729 µM
- TGI [23]: 6.05 µM and > 1 µM
- TGI [24]: > 1 µM
- GI50 [25]: 3.53 µM and > 1 µM
- TGI [25]: > 69.9 µM
- GI50 [26]: 2.11 µM and > 1 µM
- TGI [26]: 21 µM and > 1 µM
- TGI [27]: 16.9 µM and > 1 µM
- TGI [28]: 11.1 µM and > 1 µM
- GI50 [29]: 1.47 µM and 0.618 µM
- TGI [29]: 26.8 µM and > 1 µM
- TGI [30]: 18.3 µM and > 1 µM
- TGI [31]: 4.95 µM and > 1 µM
- TGI [32]: 1.53 µM and > 1 µM
- GI50 [33]: 25.9 µM and > 1 µM
- TGI [33]: > 100 µM
- GI50 [34]: 2.23 µM and > 1 µM
- TGI [34]: 16.6 µM and > 1 µM
- GI50 [35]: 6.1 µM and > 1 µM
- TGI [35]: 32.4 µM and > 1 µM
- GI50 [36]: 4.29 µM and > 1 µM
- TGI [36]: > 43.4 µM
- TGI [37]: > 43.8 µM
- GI50 [38]: 2.99 µM and > 1 µM
- TGI [38]: > 100 µM
- TGI [39]: 10.6 µM and > 1 µM
- TGI [40]: 2.95 µM and > 1 µM
- TGI [41]: > 63 µM
- TGI [42]: > 100 µM
- TGI [43]: 18 µM and > 1 µM
- TGI [44]: 3.97 µM and > 1 µM
- TGI [45]: 4.96 µM and > 1 µM
- GI50 [46]: 0.473 µM and > 1 µM
- TGI [46]: 2.9 µM and > 1 µM
- GI50 [47]: 5.75 µM and > 1 µM
- TGI [47]: > 100 µM
- TGI [48]: 42.8 µM and > 1 µM
- GI50 [49]: 2.3 µM and 0.572 µM
- TGI [49]: > 100 µM
- TGI [50]: 3.43 µM and 0.839 µM
- GI50 [51]: 1.1 µM and 0.187 µM
- TGI [51]: 5.35 µM and > 1 µM
- TGI [52]: 43.4 µM and > 1 µM
- GI50 [53]: 2.67 µM and > 1 µM
- TGI [53]: > 100 µM
- GI50 [54]: 4.2 µM and > 1 µM
- TGI [54]: > 28.8 µM
- TGI [55]: 7.27 µM and > 1 µM
- GI50 [56]: 2.09 µM and > 1 µM
- TGI [56]: 25.1 µM and > 1 µM
- TGI [57]: 1.54 µM
- GI50 [58]: 2.99 µM and > 1 µM
- TGI [58]: 24.8 µM and > 1 µM

SMILES: CC1C/C(=C\c2ccc(OC(=O)C(C)(C)C)cc2)C(=O)/C(=C/c2ccc(OC(=O)C(C)(C)C)cc2)C1 (configuration not stated)
- TGI [1]: > 100 µM
- TGI [2]: > 100 µM
- TGI [3]: > 100 µM
- TGI [4]: > 100 µM
- TGI [5]: > 100 µM
- TGI [6]: 6.25 µM
- TGI [7]: > 100 µM
- TGI [8]: > 100 µM
- TGI [9]: > 100 µM
- TGI [10]: > 100 µM
- TGI [11]: > 100 µM
- TGI [12]: > 100 µM
- TGI [13]: 62.3 µM
- TGI [14]: > 100 µM
- TGI [15]: > 100 µM
- TGI [16]: > 100 µM
- TGI [17]: > 100 µM
- TGI [18]: 63.3 µM
- TGI [19]: > 100 µM
- TGI [20]: > 100 µM
- TGI [21]: > 100 µM
- TGI [22]: > 100 µM
- TGI [23]: > 100 µM
- TGI [24]: > 100 µM
- TGI [25]: > 100 µM
- TGI [26]: > 100 µM
- TGI [27]: > 100 µM
- TGI [28]: 37.7 µM
- TGI [29]: 71 µM
- TGI [30]: > 100 µM
- TGI [31]: > 100 µM
- TGI [32]: 15.6 µM
- TGI [33]: > 100 µM
- TGI [34]: > 100 µM
- TGI [35]: > 100 µM
- TGI [36]: > 100 µM
- TGI [37]: 86.6 µM
- TGI [38]: > 100 µM
- TGI [40]: 70.9 µM
- TGI [41]: > 100 µM
- TGI [42]: > 100 µM
- TGI [43]: > 100 µM
- TGI [44]: > 100 µM
- TGI [45]: > 100 µM
- TGI [46]: > 100 µM
- TGI [47]: > 100 µM
- TGI [48]: > 100 µM
- TGI [49]: > 100 µM
- TGI [51]: > 100 µM
- TGI [52]: > 100 µM
- TGI [53]: > 100 µM
- TGI [54]: > 100 µM
- TGI [55]: > 100 µM
- TGI [56]: > 100 µM
- TGI [57]: > 100 µM

SMILES: COC(=O)c1ccc(NC(=O)O/N=C(\Cl)C(C)C)cc1
- TGI [1]: 4.35 µM
- TGI [2]: 37.6 µM
- TGI [3]: 43.2 µM
- TGI [4]: 3.16 µM
- TGI [59]: 8.94 µM
- TGI [5]: 3.08 µM
- TGI [7]: 3.72 µM
- TGI [8]: 35.1 µM
- TGI [9]: 10.9 µM
- TGI [10]: 28.1 µM
- TGI [11]: 17.2 µM
- TGI [12]: 3.49 µM
- TGI [13]: 3.66 µM
- TGI [14]: 32.9 µM
- TGI [15]: 3.57 µM
- TGI [16]: > 66.7 µM
- TGI [17]: 29.4 µM
- TGI [18]: 27.6 µM
- TGI [20]: 30.2 µM
- TGI [21]: 4.02 µM
- TGI [22]: 12 µM
- TGI [23]: 3.48 µM
- TGI [24]: 19.1 µM
- TGI [25]: 15.6 µM
- TGI [26]: 25.5 µM
- TGI [27]: 22.8 µM
- TGI [28]: 6 µM
- TGI [29]: > 53.6 µM
- TGI [30]: 39.3 µM
- TGI [31]: 41.2 µM
- TGI [32]: 1.74 µM
- TGI [33]: 16.7 µM
- TGI [34]: 4.17 µM
- TGI [35]: 32 µM
- TGI [36]: 32.8 µM
- TGI [37]: 32.5 µM
- TGI [38]: 31.1 µM
- TGI [39]: 4.47 µM
- TGI [40]: 19.6 µM
- TGI [41]: > 78.1 µM
- TGI [42]: 33.3 µM
- TGI [44]: 31.5 µM
- TGI [45]: 10.1 µM
- TGI [46]: 16.1 µM
- TGI [47]: 31.7 µM
- TGI [48]: 13.9 µM
- TGI [49]: 31.8 µM
- TGI [50]: 26.3 µM
- TGI [52]: 3.77 µM
- TGI [53]: 5.02 µM
- TGI [54]: 10.3 µM
- TGI [55]: 30.9 µM
- TGI [56]: 28.6 µM
- TGI [57]: 27 µM
- TGI [58]: 28.7 µM
